Source: ChEMBL document CHEMBL4330083, “Synthesis and evaluation of isoprenylation-resveratrol dimer derivatives against Alzheimer's disease” (Eur J Med Chem, 2019)
pIC50: −log10 of the molar value.

Tests used:
[1] = molecular target: T1, Amine oxidase [flavin-containing] B (Homo sapiens, UniProt P27338)
T1 sequence (P27338 whole entry): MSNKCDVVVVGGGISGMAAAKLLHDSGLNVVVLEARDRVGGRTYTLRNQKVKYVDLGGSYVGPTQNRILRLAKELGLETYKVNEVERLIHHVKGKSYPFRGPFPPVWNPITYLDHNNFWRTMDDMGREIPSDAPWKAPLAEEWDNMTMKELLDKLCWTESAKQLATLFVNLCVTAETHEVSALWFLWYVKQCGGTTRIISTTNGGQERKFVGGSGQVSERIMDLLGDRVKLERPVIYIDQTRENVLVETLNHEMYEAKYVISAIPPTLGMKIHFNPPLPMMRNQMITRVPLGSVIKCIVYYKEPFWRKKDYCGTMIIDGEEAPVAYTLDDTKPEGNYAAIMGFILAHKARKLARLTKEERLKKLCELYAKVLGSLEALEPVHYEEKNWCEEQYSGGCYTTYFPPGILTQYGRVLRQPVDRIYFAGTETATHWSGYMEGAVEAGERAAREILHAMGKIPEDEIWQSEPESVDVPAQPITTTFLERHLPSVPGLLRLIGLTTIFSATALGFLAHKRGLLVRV

Homo sapiens = species: Homo sapiens; assay: Selectivity ratio of IC50 for human MAO-A to IC50 for human MAO-B
[2] = molecular target: T2, Amine oxidase [flavin-containing] A (Homo sapiens, UniProt P21397); assay: Inhibition of human MAO-A preincubated for 15 mins followed by p-tyramine substrate addition and measured after 20 mins by Amplex red reagent based fluorescence assay
T2 sequence (P21397 whole entry): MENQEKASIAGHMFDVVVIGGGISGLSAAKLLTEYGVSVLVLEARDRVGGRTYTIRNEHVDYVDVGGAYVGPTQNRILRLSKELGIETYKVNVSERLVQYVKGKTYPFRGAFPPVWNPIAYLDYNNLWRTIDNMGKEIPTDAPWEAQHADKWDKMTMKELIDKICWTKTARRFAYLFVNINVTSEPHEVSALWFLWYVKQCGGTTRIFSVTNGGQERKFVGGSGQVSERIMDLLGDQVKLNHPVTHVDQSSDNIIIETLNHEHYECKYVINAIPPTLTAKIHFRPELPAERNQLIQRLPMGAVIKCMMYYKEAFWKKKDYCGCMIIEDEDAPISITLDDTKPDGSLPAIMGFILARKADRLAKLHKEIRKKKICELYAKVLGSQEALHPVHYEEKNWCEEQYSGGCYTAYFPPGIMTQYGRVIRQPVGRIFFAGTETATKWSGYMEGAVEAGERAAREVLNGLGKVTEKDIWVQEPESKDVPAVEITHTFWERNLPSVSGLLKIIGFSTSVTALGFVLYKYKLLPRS

[3] = Antioxidant activity assessed as inhibition of DPPH free radical after 30 mins by UV-Visible spectrophotometric analysis; type: functional
[4] = Antioxidant activity assessed as ABTS radical cation scavenging activity by measuring trolox equivalents after 150 mins; type: functional
[5] = Antioxidant activity assessed as ferric ion reduction by measuring trolox equivalents after 3 to 5 mins by FRAP assay; type: functional
in vitro = assay: in vitro; parameters: dose or concentration left out as unconfirmed; conditions: PAMPA
Description: Effective permeability of the compound at 100 mg/ml incubated for 16 hrs by PAMPA-BBB assay

SMILES	pIC50 [1]	Ratio IC50 (Homo sapiens)	pIC50 [2]	pIC50 [3]	Activity [4] [equiv]	Activity [5] [equiv]	Papp at 16 h (in vitro) [×10⁻⁶ cm/s]
Oc1ccc([C@H]2Oc3ccc(/C=C/c4cc(O)cc(O)c4)cc3[C@@H]2c2cc(O)cc(O)c2)cc1	5.62	3.74	5.05	4.11			
Oc1ccc(/C=C/c2cc(O)cc(O)c2)cc1 [RESVERATROL]	5.30			4.10	1.07	0.98	
C[C@]12CC[C@@H]3c4ccc(O)cc4CC[C@H]3[C@@H]1CC[C@@H]2O [ESTRADIOL]							13.3
Cc1c(C)c2c(c(C)c1O)CCC(C)(C(=O)O)O2 (stereo not given) [TROLOX]				4.30	1	1	
CO[C@@H](c1ccc(O)cc1)[C@H](Oc1ccc(/C=C/c2cc(O)c3c(c2)OC(C)(C)CC3)cc1)c1cc(O)c(CC=C(C)C)c(O)c1	5.72	5.58	4.97	3.73	0.29	1.04	
CC(C)=CCc1c(O)cc([C@@H](Oc2ccc(/C=C/c3cc(O)c4c(c3)OC(C)(C)CC4)cc2)[C@@H](C)c2ccc(O)cc2)cc1O	5.03	2.05	4.72	3.83	0.89	1.26	
CC(C)=CCc1c(O)cc(/C=C/c2ccc(O)cc2)cc1O [ARACHIDIN-2]	5.44	3.1	4.95	4.13	1.23	1.03	
